Reference: PubChem BioAssay (NCI)
“And” between values parts separate entries of the source, which are not always exact repeats. Equal values may be shown once.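 Method: 48-hour compound exposure of cells in 96-well plates, five concentrations, linear interpolation of endpoints. GI50: concentration for 50% inhibition of growth. Definition used: TGI = concentration required for complete inhibition of growth.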

test system: PC-3 prostate; test: inhibition of tumour cell growth, NCI panel, 48 h

| SMILES | GI50 [µM] | TGI |
| --- | --- | --- |
| N=c1c2c(-c3ccccc3)c(-c3ccccc3)n(Cc3ccccc3)c2ncn1C1CCC(O)CC1 (stereo not drawn) | 0.466 | 5.08 µM |
| O=c1c(F)cn(Cc2ccc(C34CC5CC(CC(C5)C3)C4)c(O)c2)c(=O)n1Cc1ccc(C23CC4CC(CC(C4)C2)C3)c(O)c1 | 10.7 | 24.2 µM |
| CCOC(=O)Nc1cc2c(c(N)n1)N=C(c1ccccc1)CO2 | 0.182 | 6.44 µM |
| CC1CC2CCCC(O)=C2C(=O)O1 (stereo not drawn) | – | > 100 µM |
| CC(C)(/C=C(\C#N)C(=O)N1CCC[C@@H](n2nc(-c3ccc(Oc4ccccc4)cc3F)c3c(N)ncnc32)C1)N1CCN(C2COC2)CC1 | 10.6 | 27.6 µM |
| O=c1oc2ccc(-c3ccc(F)cc3F)cc2c(=O)n1-c1cccc(C(F)(F)F)c1 | 2.04 | 12.4 µM |
| O=C(Cc1ccc(F)c(Cl)c1)Nc1cc(C2(C(F)(F)F)CC2)nn1CC1CCCCC1 | 4.68 | > 15 µM |
| NNC(=O)CNc1cccc(Br)c1 | – | > 100 µM |
| NC(N)=NCCCC(=O)O | – | > 100 µM |
| CCN1CCN(c2cc(C)c3cc(NC(=O)c4ccc(OC)c(OC)c4)ccc3n2)CC1 | 7.3 | > 100 µM |
| COC(=O)c1c2c(c(C)[n+]([O-])c1C)C(=O)C=C(NCc1ccc(F)cc1)C2=O | 0.317 | 3.68 µM |
| CCCC(=O)Nc1cn(COC)c(C(=O)N2C[C@@H]3C[C@]34C2=CC(=O)c2[nH]cc(C)c24)n1 | 5.65 | 24.1 µM and 19 µM |
| CC(=O)Nc1ccc(-c2csc(Nc3cccc(-c4csc(C)n4)c3)n2)cc1 | 1.67 | > 19.9 µM |

test system: HS 578T breast; test: inhibition of tumour cell growth, NCI panel, 48 h

| SMILES | GI50 [µM] | TGI [µM] |
| --- | --- | --- |
| CC1(C)OC2C(CO[Si](C)(C)C(C)(C)C)OC(n3c(I)c(C#C[Si](C)(C)C)c(=O)[nH]c3=O)C2O1 (stereo not drawn) | 16.8 | 51.1 |
| CN(C)CC[C@H](CSc1ccccc1)Nc1ccc(S(=O)(=O)NC(=O)c2ccc(N3CCN(Cc4ccccc4-c4ccc(Cl)cc4)CC3)cc2)cc1[N+](=O)[O-] | 6.87 | > 100 |
| COc1ccc(-c2ccc(=O)oc2C#Cc2cc(OC)c(OC)c(OC)c2)cc1O | 0.696 | > 100 |
| O=C(/C=C/c1ccc[nH]1)c1ccc(-n2ccc(C(F)(F)F)n2)cc1 | > 100 | > 100 |
| O=C(c1ccco1)c1c(C(F)(F)F)nc2ccc(Cl)cc2[n+]1[O-] | 19.8 | 51.4 |
| Clc1cc2c(c(CSc3nc4ccccc4n4cccc34)c1)OCOC2 | 5.61 | 45 |
| CN1CCN(c2ccc(Nc3cc(-c4cccc(-n5ccc6cc(C7CC7)cc(F)c6c5=O)c4CO)cn(C)c3=O)nc2)CC1 | 4.99 | 25.3 |
| COc1ccc2nc3ccccc3c(NCc3ccc(F)cc3)c2c1 | 2.22 | 12.1 |
| COc1cc(N=Nc2ccc(O)c3ncccc23)c2ncccc2c1 | 4.67 | > 100 |
| CCn1c(O)c(/C=N/NC(=O)C(C)c2ccc(CC(C)C)cc2)sc1=S (stereo not drawn) | 0.294 | > 40.5 |
| C[C@@H]1C[C@@H]([C@@H](CC2CC(=O)NC(=O)C2)OC(=O)CC(=O)c2ccccc2)C(=O)[C@@H](C)C1 | 0.604 | 10.9 |
| Cc1nc(Nc2cccnc2)sc1C(=O)/C=C/c1ccc(F)cc1 | 4.05 | > 100 |
| N=c1c2c(-c3ccccc3)c(-c3ccccc3)n(Cc3ccccc3)c2ncn1C1CCC(O)CC1 (stereo not drawn) | 1.57 | 23.8 |
| O=c1c(F)cn(Cc2ccc(C34CC5CC(CC(C5)C3)C4)c(O)c2)c(=O)n1Cc1ccc(C23CC4CC(CC(C4)C2)C3)c(O)c1 | 11.5 | 56.4 |
| CCOC(=O)Nc1cc2c(c(N)n1)N=C(c1ccccc1)CO2 | 0.388 | > 69.4 |
| CC1CC2CCCC(O)=C2C(=O)O1 (stereo not drawn) | – | > 100 |
| CC(C)(/C=C(\C#N)C(=O)N1CCC[C@@H](n2nc(-c3ccc(Oc4ccccc4)cc3F)c3c(N)ncnc32)C1)N1CCN(C2COC2)CC1 | 4.67 | 23.8 |
| O=c1oc2ccc(-c3ccc(F)cc3F)cc2c(=O)n1-c1cccc(C(F)(F)F)c1 | 1.3 | 7.28 |
